Test results published in paper PMC5344293, “A phase 1 dose-escalation and expansion study of binimetinib (MEK162), a potent and selective oral MEK1/2 inhibitor” (British Journal of Cancer, 2017).
“And” between values parts separate entries of the source, which are not always exact repeats. Equal values may be shown once.

Key:
advanced solid tumours = experiment: Tumour response, RECIST version 1.1; type: in vivo, human
Protocol: Efficacy was assessed through radiologic scans and clinical measurements of disease sites (if applicable), and evaluation of serologic tumour markers in patient blood samples as appropriate for tumour type. Tumour assessments were performed within 21 days before the first dose and then every 6 weeks starting at the end of cycle 2. Tumour response was evaluated by the investigator using Response Evaluation Criteria in Solid Tumours (RECIST) version 1.1 criteria. Tumour marker levels were incorporated into the overall response assessment per RECIST.
All patients who received ⩾1 dose of binimetinib were included in the safety analysis. Patients in the safety analysis who had ⩾1 measurable lesion at baseline and at least 1 post-baseline disease assessment were evaluable for efficacy. Kaplan–Meier estimates of progression-free survival (PFS) and overall survival (OS) were performed for patients in the expansion phase ([Kaplan and Meier, 1958]) using SAS Version 9.2 (SAS Institute Inc., Cary, NC, USA).

[1] = test system: C-reactive protein, interferon, IL-10, IL-12p70, IL-1β, IL-6, or IL-8; experiment: Serum cytokines other than TNF-α; type: in vivo, human
[2] = design: method as in Watanabe et al, 2016; details: BID; Japanese patients with advanced solid tumours; ref Watanabe et al, 2016; cited from earlier work
human cancer cell lines = test system: human cancer cell lines; design: method as in Lee et al, 2010; details: subset of cells; particularly active with activating BRAF, NRAS, KRAS mutations; ref Lee et al, 2010; cited from earlier work
pMEK = experiment: Skin punch biopsy pMEK expression; type: in vivo, human; details: pre-dose and post-dose skin punch biopsies
NRAS-mutant melanoma [3] = test system: NRAS-mutant melanoma; design: method as in Dummer et al, 2016; details: patients with NRAS-mutant melanoma; ref Dummer et al, 2016; cited from earlier work
NRAS-mutant melanoma [4] = test system: NRAS-mutant melanoma; design: method as in Ascierto et al, 2013; Van Herpen et al, 2015; details: patients with advanced NRAS-mutant melanoma; ref Ascierto et al, 2013; Van Herpen et al, 2015; cited from earlier work
[5] = test system: xenograft models derived from melanoma, colorectal cancer, NSCLC, fibrosarcoma, cholangiocarcinoma, and pancreatic cancer; design: method as in Lee et al, 2010; Woessner et al, 2010; details: non-clinical data, ref Lee et al, 2010, Woessner et al; cited from earlier work
ERK phosphorylation = test system: ERK phosphorylation; design: method as in Lee et al, 2010; details: human cell lines; ref Lee et al, 2010; cited from earlier work
[6] = Phase 1 dose escalation: DLTs and MTD; type: in vivo
Protocol: This multicentre, open-label, phase 1 study comprised two phases: a dose-escalation phase and an expansion phase. In the dose-escalation phase, a modified 3+3 design was employed to determine the MTD of binimetinib administered orally twice daily (BID) in a 21-day treatment cycles. A single dose of binimetinib was administered on day 1 and then BID continuously beginning on day 2 of cycle 1. A starting dose of 30 mg BID was utilised for the dose-escalation phase. The dose was escalated in cohorts of at least three evaluable patients at 45 mg BID, 60 mg BID, and 80 mg BID until MTD was determined. Patients in the expansion phase received continuous BID treatment with binimetinib beginning on day 1 of cycle 1 at the MTD determined in the dose-escalation phase. Patients were instructed to take BID doses 12±2 h apart with water, irrespective of food.
Dose-limiting toxicities (DLTs) were any adverse event (AE) not clearly attributable to the patient's disease, including haematologic toxicities of grade 4 neutropenia for ⩾5 days, febrile neutropenia, grade 4 thrombocytopenia, and grade 3 thrombocytopenia with bleeding. […]

## Cn1cnc2c(F)c(Nc3ccc(Br)cc3F)c(C(=O)NOCCO)cc21 [binimetinib]
Advanced solid tumours
  Best response of stable disease, patients: 36%
Advanced solid tumours; 3 of 30 patients with biliary cancer
  Objective responses among patients with biliary cancer: 10%
Advanced solid tumours; KRAS- or BRAF-mutant cohorts
  Responses in patients with colorectal cancer: no responses
Advanced solid tumours; all in patients with biliary cancer
  Objective responses, number of patients: Three
Advanced solid tumours; biliary cancer
  Duration of complete response: 11.3 months
Advanced solid tumours; biliary cancer, two patients
  Duration of partial response: 10.2 months and 17.9 months
Advanced solid tumours; of 91 patients evaluable for response
  Objective responses: 3%
Advanced solid tumours; patients with biliary cancer
  Complete responses, number of patients: one
  Partial responses, number of patients: two
Advanced solid tumours; range, 0.92–11.53 months
  Median duration of stable disease: 3.94 months
[1]
  Changes in C-reactive protein, interferon, IL-10, IL-12p70, IL-1β, IL-6, or IL-8: no notable changes
[2]
  MTD/recommended phase 2 dose: 45 mg
Human cancer cell lines
  Inhibition of proliferation: potently inhibits
pMEK
  Change in skin pMEK relative to baseline: no notable changes
NRAS-mutant melanoma [3]
  PFS vs dacarbazine: significantly longer PFS
NRAS-mutant melanoma [4]
  Response rate: 15%
[5]
  Anti-tumour activity in xenograft models: broad anti-tumour activity
ERK phosphorylation
  Inhibition of ERK phosphorylation: markedly inhibits
[6]; human, in vivo, 21 day
  Recommended phase 2 dose: 45 mg
[6]; orally twice daily (BID), 21-day cycles, patients with advanced solid tumours
  Maximum tolerated dose (MTD): 60 mg
